Assay results as given in patent US8574914B2, “Methods for mobile zinc measurement” (The General Hospital Corporation, priority 2009, dated 2013).

Assay: fluorescent zinc titration of ZPP1, fit to two-step binding model
Source text: Since ZPP1 contains two zinc-binding units, the following stepwise equilibria describe the binding events.
Two apparent binding constants, (K1app=1.52×10^11 M^−1, K2app=1.02×10^8 M^−1) were obtained by fitting the experimental data to the two-step model with high fidelity.

[1] = fluorescence titration, two-step model fit

apparent binding constant K1app (first step zinc binding) [1]: 1.52e+11 M⁻¹ | apparent binding constant K2app (second step zinc binding) [1]: 1.02e+08 M⁻¹ | zinc equivalents at which fluorescence intensity reaches its maximum (state B): ~2 equiv | fluorescence response on addition of up to 1 equiv of zinc (up to 1 equiv zinc (state A)): only a slight fluorescence increase
SMILES: O=C(O)c1ccccc1-c1c2cc(Cl)c(=O)c(CN(Cc3ccccn3)Cc3cnccn3)c-2oc2c(CN(Cc3ccccn3)Cc3cnccn3)c(O)c(Cl)cc12 [ZPP1]
